Experimental data as given in patent US20260055079A1, “PHTHALAZINONE COMPOUNDS AS PARP7 INHIBITORS” (AZKARRA THERAPEUTICS, INC., priority 2022, published 2026).
pIC50: −log10 of the molar value. Like-named read-outs stand apart in the source and are kept apart here.

How the values were obtained:
[1] = test system: NCI-H1373 (human lung adenocarcinoma) cells; experiment: Cell proliferation assay (CellTiter-Glo), NCI-H1373; assay type: cell-based; details: read-out: NCI-H1373 GI50
His-GST-PARP7 = His-GST-PARP7 (Homo sapiens (Human), UniProt Q7Z3E1); experiment: PARP7 biochemical assay; details: read-out: PARP7 IC50
Chain of His-GST-PARP7 (Q7Z3E1 whole entry): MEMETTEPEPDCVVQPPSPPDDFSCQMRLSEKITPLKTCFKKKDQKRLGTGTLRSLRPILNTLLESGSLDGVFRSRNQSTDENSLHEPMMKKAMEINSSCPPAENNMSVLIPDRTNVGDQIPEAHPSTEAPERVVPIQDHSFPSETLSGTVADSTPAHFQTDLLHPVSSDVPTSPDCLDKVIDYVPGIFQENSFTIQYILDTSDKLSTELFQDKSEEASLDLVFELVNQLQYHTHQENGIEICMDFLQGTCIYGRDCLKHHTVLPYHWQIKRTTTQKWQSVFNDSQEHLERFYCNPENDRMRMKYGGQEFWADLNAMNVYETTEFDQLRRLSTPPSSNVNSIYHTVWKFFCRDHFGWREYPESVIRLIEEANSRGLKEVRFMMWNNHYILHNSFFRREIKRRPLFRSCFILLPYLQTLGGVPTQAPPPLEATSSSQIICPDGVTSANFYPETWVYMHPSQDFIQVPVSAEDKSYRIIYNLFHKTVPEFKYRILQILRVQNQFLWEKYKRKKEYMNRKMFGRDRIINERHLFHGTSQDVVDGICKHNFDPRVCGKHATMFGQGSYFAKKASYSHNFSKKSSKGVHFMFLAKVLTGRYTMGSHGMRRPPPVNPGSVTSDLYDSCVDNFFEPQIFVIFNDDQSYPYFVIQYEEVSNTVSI

[2] = test system: HARA (human lung squamous cell carcinoma) cells; experiment: Cell proliferation assay (CellTiter-Glo), HARA; assay type: cell-based; details: read-out: HARA GI50
[3] = test system: CT26 (mouse colon adenocarcinoma) cells; experiment: Cell proliferation assay (CellTiter-Glo), CT26; assay type: cell-based; details: 6 days
PARP2 = PARP2 (Homo sapiens (Human), UniProt Q9UGN5); experiment: PARP2 biochemical assay
Chain of PARP2 (Q9UGN5 whole entry): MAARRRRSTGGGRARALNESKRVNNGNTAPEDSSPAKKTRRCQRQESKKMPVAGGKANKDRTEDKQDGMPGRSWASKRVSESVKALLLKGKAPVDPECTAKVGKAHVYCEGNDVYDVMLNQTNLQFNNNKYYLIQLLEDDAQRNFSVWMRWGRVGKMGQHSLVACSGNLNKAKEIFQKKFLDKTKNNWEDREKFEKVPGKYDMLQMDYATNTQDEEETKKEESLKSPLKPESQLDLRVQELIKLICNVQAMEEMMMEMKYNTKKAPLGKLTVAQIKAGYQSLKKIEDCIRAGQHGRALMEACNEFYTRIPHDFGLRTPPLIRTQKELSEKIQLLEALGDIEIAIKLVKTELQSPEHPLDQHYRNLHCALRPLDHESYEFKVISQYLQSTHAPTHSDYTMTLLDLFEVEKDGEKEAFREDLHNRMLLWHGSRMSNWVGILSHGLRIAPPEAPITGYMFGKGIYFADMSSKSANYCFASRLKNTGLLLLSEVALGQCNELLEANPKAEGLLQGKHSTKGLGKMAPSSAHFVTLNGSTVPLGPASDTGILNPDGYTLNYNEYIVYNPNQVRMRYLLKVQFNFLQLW

[4] = Homo sapiens, NCI-H1373, 144 h, 6 days, CellTiter-Glo
[5] = Homo sapiens, 144 h, 6 days, CellTiter-Glo

Row | Compound | GI50 [1, 4] [nM] | pIC50 (His-GST-PARP7) | GI50 [2, 5] [nM] | GI50 ([3]; Mus musculus, CT26, 144 h) [nM] | GI50 ([1]; Homo sapiens, NCI-H1373, 144 h) [nM] | GI50 ([2]; Homo sapiens, 144 h) [nM] | pIC50 (PARP2) | GI50 ([1]; 6 days, CellTiter-Glo) [nM] | GI50 ([2]; 6 days, CellTiter-Glo) [nM] | GI50 [3] [nM] | pIC50 (PARP2; read-out: PARP2 IC50)
1 | N#Cc1ccc(N2CCN(C(=O)c3cc(Cc4n[nH]c(=O)c5ccc(OC6CCC6)cc45)ccn3)CC2)nc1 [Example 179, 6-(4-(4-((7-Cyclobutoxy-4-oxo-3,4-dihydrophthalazin-1-yl)methyl)picolinoyl)piperazin-1-yl)nicotinonitrile] | < 100 | > 7.30 | > 5000 | > 5000 |  |  |  |  |  |  | 
2 | CC#Cc1ccc2c(=O)[nH]nc(Cc3ccc(F)c(C(=O)N4CCN(c5ccc(C#N)cn5)CC4)c3)c2c1OC [Example 81, 6-(4-(2-Fluoro-5-((8-methoxy-4-oxo-7-(prop-1-yn-1-yl)-3,4-dihydrophthalazin-1-yl)methyl)benzoyl)piperazin-1-yl)nicotinonitrile] | < 100 | > 7.30 | 100 to 1000 | < 100 |  |  |  |  |  |  | 
3 | N#Cc1ccc(N2CCCN(C(=O)c3cc(Cc4n[nH]c(=O)c5ccc(OC6CCC6)cc45)ccc3F)CC2)nc1 [Example 94, 6-(4-(5-((7-Cyclobutoxy-4-oxo-3,4-dihydrophthalazin-1-yl)methyl)-2-fluorobenzoyl)-1,4-diazepan-1-yl)nicotinonitrile] | < 100 | > 7.30 | 1000 to 5000 | 1000 to 5000 |  |  |  |  |  |  | 
4 | N#Cc1cnc(N2CCN(C(=O)c3cc(Cc4n[nH]c(=O)c5ccc(OC6CCC6)cc45)ccc3F)CC2)nc1 [Example 154, 2-(4-(5-((7-cyclobutoxy-4-oxo-3,4-dihydrophthalazin-1-yl)methyl)-2-fluorobenzoyl)piperazin-1-yl)pyrimidine-5-carbonitrile] | < 100 | > 7.30 | 1000 to 5000 | 1000 to 5000 |  |  |  |  |  |  | 
5 | O=C(c1cc(Cc2n[nH]c(=O)c3ccc(OC4CCC4)cc23)ccc1F)N1CCN(c2ccc(C(F)(F)F)nn2)CC1 [Example 158, 6-cyclobutoxy-4-(4-fluoro-3-(4-(6-(trifluoromethyl)pyridazin-3-yl)piperazine-1-carbonyl)benzyl)phthalazin-1(2H)-one] | 1000 to 5000 | > 7.30 | > 5000 | 1000 to 5000 |  |  |  |  |  |  | 
6 | N#Cc1ccc(N2CCN(C(=O)c3cc(Br)cc(Cc4n[nH]c(=O)c5ccc(OC6CCC6)cc45)c3)CC2)nc1 [Example 178, 6-(4-(3-Bromo-5-((7-cyclobutoxy-4-oxo-3,4-dihydrophthalazin-1-yl)methyl)benzoyl)piperazin-1-yl)nicotinonitrile] | 100 to 1000 | > 7.30 | 1000 to 5000 | > 5000 |  |  |  |  |  |  | 
7 | N#Cc1ccc(N2CC3(CN(C(=O)c4cc(Cc5n[nH]c(=O)c6ccc(OC7CCC7)cc56)ccc4F)C3)C2)nc1 [Example 148, 6-(6-(5-((7-cyclobutoxy-4-oxo-3,4-dihydrophthalazin-1-yl)methyl)-2-fluorobenzoyl)-2,6-diazaspiro[3.3]heptan-2-yl)nicotinonitrile] | > 5000 | 5.70 to 6.30 | > 5000 | > 5000 |  |  |  |  |  |  | 
8 | N#Cc1ccc(N2CCN(C(=O)c3cc(Cc4n[nH]c(=O)c5ccc(OC6CCC6)cc45)ccc3F)CC2)nc1 [Example 14, 6-(4-(5-((7-Cyclobutoxy-4-oxo-3,4-dihydrophthalazin-1-yl)methyl)-2-fluorobenzoyl)piperazin-1-yl)nicotinonitrile] |  | > 7.30 |  |  | < 100 | 1000 to 5000 | 5.70 to 6.30 |  |  |  | 
9 | O=C(c1cc(Cc2n[nH]c(=O)c3ccc(OC4CCC4)cc23)ccc1F)N1CCN(c2ncc(C(F)F)cn2)CC1 [Example 157, 6-Cyclobutoxy-4-(3-(4-(5-(difluoromethyl)pyrimidin-2-yl)piperazine-1-carbonyl)-4-fluorobenzyl)phthalazin-1(2H)-one] | < 100 | > 7.30 | 1000 to 5000 | 1000 to 5000 |  |  |  |  |  |  | 
10 | O=C(c1cc(Cc2n[nH]c(=O)c3ccc(OC4CCC4)cc23)ccc1F)N1CCN(c2ccc(C(F)(F)F)nc2)CC1 [Example 159, 6-Cyclobutoxy-4-(4-fluoro-3-(4-(6-(trifluoromethyl)pyridin-3-yl)piperazine-1-carbonyl)benzyl)phthalazin-1(2H)-one] | 100 to 1000 | > 7.30 | > 5000 | > 5000 |  |  |  |  |  |  | 
11 | COc1ccnc(N2CCN(C(=O)c3cc(Cc4n[nH]c(=O)c5ccc(OC6CCC6)cc45)ccc3F)CC2)c1 [Example 128, 6-cyclobutoxy-4-(4-fluoro-3-(4-(4-methoxypyridin-2-yl)piperazine-1-carbonyl)benzyl)phthalazin-1(2H)-one] | 100 to 1000 | > 7.30 | 1000 to 5000 | 1000 to 5000 |  |  |  |  |  |  | 
12 | N#Cc1ccc(N2CCN(C(=O)c3cc(Cc4n[nH]c(=O)c5ccc(OC6CCC6)cc45)ccc3F)CC2)nc1C(F)(F)F [Example 135, 6-(4-(5-((7-cyclobutoxy-4-oxo-3,4-dihydrophthalazin-1-yl)methyl)-2-fluorobenzoyl)piperazin-1-yl)-2-(trifluoromethyl)nicotinonitrile] | 100 to 1000 | 7.00 to 7.30 | > 5000 | > 5000 |  |  |  |  |  |  | 
13 | 6-Cyclobutoxy-4-(4-fluoro-3-(2-(hydroxymethyl)-4,5,6,7-tetrahydropyrazolo[1,5-a]pyrazine-5-carbonyl)benzyl)phthalazin-1(2H)-one [Example 168] |  | 6.30 to 7.00 |  |  |  |  |  | > 5000 | > 5000 | > 5000 | 
14 | C#CCOc1ccc2c(=O)[nH]nc(Cc3ccc(F)c(C(=O)N4CCN(c5ccc(C#N)cn5)CC4)c3)c2c1 [Example 3, 6-(4-(2-fluoro-5-((4-oxo-7-(prop-2-yn-1-yloxy)-3,4-dihydrophthalazin-1-yl)methyl)benzoyl)piperazin-1-yl)nicotinonitrile] |  | > 7.30 |  |  | < 100 | 1000 to 5000 |  |  |  |  | > 7.30
15 | N#Cc1ccc(N2CCN(C(=O)c3cc(Cc4n[nH]c(=O)c5ccc(OC6CCC6)cc45)ccc3F)[C@@H]3C[C@@H]32)nc1 (stereo in doubt) [Example 150, 6-(5-(5-((7-cyclobutoxy-4-oxo-3,4-dihydrophthalazin-1-yl)methyl)-2-fluorobenzoyl)-2,5-diazabicyclo[4.1.0]heptan-2-yl)nicotinonitrile] | 100 to 1000 | > 7.30 | 1000 to 5000 | 1000 to 5000 |  |  |  |  |  |  | 
16 | COc1cc2c(Cc3ccc(F)c(C(=O)N4CCN(c5ccc(C#N)cn5)CC4)c3)n[nH]c(=O)c2cn1 [Example 91, 6-(4-(2-fluoro-5-((7-methoxy-4-oxo-3,4-dihydropyrido[4,3-d]pyridazin-1-yl)methyl)benzoyl)piperazin-1-yl)nicotinonitrile] | 1000 to 5000 | > 7.30 | > 5000 | > 5000 |  |  |  |  |  |  | 
17 | N#Cc1ccc(-c2nnc3n2CCN(C(=O)c2cc(Cc4n[nH]c(=O)c5ccc(OC6CCC6)cc45)ccc2F)C3)nc1 [Example 139, 6-(7-(5-((7-cyclobutoxy-4-oxo-3,4-dihydrophthalazin-1-yl)methyl)-2-fluorobenzoyl)-5,6,7,8-tetrahydro-[1,2,4]triazolo[4,3-a]pyrazin-3-yl)nicotinonitrile] | 100 to 1000 | > 7.30 | 1000 to 5000 | > 5000 |  |  |  |  |  |  | 
18 | N#Cc1ccc(N2CCN(C(=O)c3ccnc(Cc4n[nH]c(=O)c5ccc(OC6CCC6)cc45)c3)CC2)nc1 [Example 180, 6-(4-(2-((7-Cyclobutoxy-4-oxo-3,4-dihydrophthalazin-1-yl)methyl)isonicotinoyl)piperazin-1-yl)nicotinonitrile] | < 100 | > 7.30 | > 5000 | 1000 to 5000 |  |  |  |  |  |  | 
19 | Cc1cc(C#N)cnc1N1CCN(C(=O)c2cc(Cc3n[nH]c(=O)c4ccc(OC5CCC5)cc34)ccc2F)CC1 [Example 138, 6-(4-(5-((7-cyclobutoxy-4-oxo-3,4-dihydrophthalazin-1-yl)methyl)-2-fluorobenzoyl)piperazin-1-yl)-5-methylnicotinonitrile] | 100 to 1000 | > 7.30 | 1000 to 5000 | > 5000 |  |  |  |  |  |  | 
20 | N#Cc1ccc(N2CCCC23CN(C(=O)c2cc(Cc4n[nH]c(=O)c5ccc(OC6CCC6)cc45)ccc2F)C3)nc1 [Example 149, 6-(2-(5-((7-cyclobutoxy-4-oxo-3,4-dihydrophthalazin-1-yl)methyl)-2-fluorobenzoyl)-2,5-diazaspiro[3.4]octan-5-yl)nicotinonitrile] | > 5000 | 5.70 to 6.30 | > 5000 | > 5000 |  |  |  |  |  |  | 
21 | N#Cc1ccc(N2CCN(C(=O)c3cc(Cc4n[nH]c(=O)c5ccc(OC6CC(F)(F)C6)cc45)ccc3F)CC2)nc1 [Example 51, 6-(4-(5-((7-(3,3-Difluorocyclobutoxy)-4-oxo-3,4-dihydrophthalazin-1-yl)methyl)-2-fluorobenzoyl)piperazin-1-yl)nicotinonitrile] | < 100 | > 7.30 | > 5000 | 1000 to 5000 |  |  |  |  |  |  | 
22 | COc1ccc2c(=O)[nH]nc(Cc3cccc(C(=O)N4CCN(c5ccc(C#N)cn5)CC4)c3)c2c1 [Example 4, 6-(4-(3-((7-Methoxy-4-oxo-3,4-dihydrophthalazin-1-yl)methyl)benzoyl)piperazin-1-yl)nicotinonitrile] | < 100 | > 7.30 | 1000 to 5000 | 100 to 1000 |  |  |  |  |  |  | 
23 | CC#Cc1ccc2c(=O)[nH]nc(Cc3cc(F)c(F)c(C(=O)N4CCN(c5ccc(C#N)cn5)CC4)c3)c2c1 [Example 74, 6-(4-(2,3-Difluoro-5-((4-oxo-7-(prop-1-ynyl)-3,4-dihydrophthalazin-1-yl)methyl)benzoyl)piperazin-1-yl)nicotinonitrile] | 100 to 1000 | > 7.30 |  |  |  |  |  |  |  |  | 7.00 to 7.30
